Experiments:
[1] = target: T1, recombinant human TRPV1 (hTRPV1) (Homo sapiens, UniProt Q8NER1); set-up: expressed in transfected cells; method as in PMID 23932918, PMID 30496739; conditions: previously reported; cited from earlier work
[2] = target: T1, recombinant human TRPV1 (hTRPV1); assay: TRPV1 channel assay: intracellular Ca2+ elevation (Fluo-4) in HEK-293 cells overexpressing hTRPV1; type: cell-based; set-up: expressed in transfected cells; host or cells: HEK-293 cells, stably transfected, selected with Geneticin

T1 sequence (Q8NER1 whole entry): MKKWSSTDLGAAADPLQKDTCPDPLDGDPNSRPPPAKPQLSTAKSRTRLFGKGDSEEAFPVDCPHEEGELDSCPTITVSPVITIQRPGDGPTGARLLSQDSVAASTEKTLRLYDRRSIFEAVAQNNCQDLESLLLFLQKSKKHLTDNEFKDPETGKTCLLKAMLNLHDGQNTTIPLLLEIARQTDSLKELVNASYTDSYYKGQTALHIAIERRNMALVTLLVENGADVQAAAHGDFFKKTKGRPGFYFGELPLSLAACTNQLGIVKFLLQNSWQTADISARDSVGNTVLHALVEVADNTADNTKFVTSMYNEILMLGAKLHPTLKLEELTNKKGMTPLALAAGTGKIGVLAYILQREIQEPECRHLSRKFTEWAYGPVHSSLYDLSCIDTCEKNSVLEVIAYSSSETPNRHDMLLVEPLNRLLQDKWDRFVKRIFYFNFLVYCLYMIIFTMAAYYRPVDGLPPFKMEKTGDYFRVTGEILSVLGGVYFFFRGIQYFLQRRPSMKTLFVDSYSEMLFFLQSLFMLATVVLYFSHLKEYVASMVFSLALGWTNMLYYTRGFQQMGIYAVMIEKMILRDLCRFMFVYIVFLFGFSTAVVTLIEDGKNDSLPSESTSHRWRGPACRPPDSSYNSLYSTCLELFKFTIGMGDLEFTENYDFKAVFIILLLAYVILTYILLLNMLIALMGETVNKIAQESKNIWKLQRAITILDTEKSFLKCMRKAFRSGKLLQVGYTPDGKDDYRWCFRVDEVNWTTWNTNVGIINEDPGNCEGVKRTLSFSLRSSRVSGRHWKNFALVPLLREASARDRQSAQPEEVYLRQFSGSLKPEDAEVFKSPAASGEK

| efficacy (relative to ionomycin 4 μM) ([2]; HEK-293 cells stably transfected with hTRPV1, [Ca2+]i increase normalized to the response to ionomycin 4 μM) | EC50 ([2]; HEK-293 cells stably transfected with hTRPV1, half-maximal increase in [Ca2+]i, read-out: potency EC50) [µM] | IC50 ([2]; read-out: IC50 (capsaicin 0.1 μM), HEK-293-hTRPV1, compound added 5 min before capsaicin 100 nM, capsaicin alone = 100%) [µM] | inhibition at 25 µM ([2]; HEK293, read-out: inhibition of the capsaicin response) [%] | SMILES | behaviour at TRPV1 (in words) [1] |
| --- | --- | --- | --- | --- | --- |
|  |  |  |  | C[C@H]1[C@H](C)CC[C@]2(C(=O)O)CC[C@]3(C)C(=CC[C@@H]4[C@@]5(C)CC[C@H](O)C(C)(C)[C@@H]5CC[C@]43C)[C@H]12 [3a, ursolic acid] | weak antagonists |
| 16 ± 1 | 5.4 ± 2.3 | 7.5 ± 0.7 |  | COc1cc(CNC(=O)[C@]23CC[C@@H](C)[C@H](C)[C@H]2C2=CC[C@@H]4[C@@]5(C)CC[C@H](O)C(C)(C)[C@@H]5CC[C@@]4(C)[C@]2(C)CC3)ccc1O [3b, Ursoloyl vanillamide] |  |
|  |  |  | 20 ± 3 | CC1(C)CC[C@]2(C(=O)O)CC[C@]3(C)C(=CC[C@@H]4[C@@]5(C)CC[C@H](O)C(C)(C)[C@@H]5CC[C@]43C)[C@@H]2C1 [2a, oleanolic acid] | weak antagonists |
